Experimental findings from BindingDB's records for patent US20250099442 (Prothena Biosciences, 2025) are described below.

As a reminder, the IC50 is the concentration that gives 50% inhibition. Lower therefore signals inhibition by little substance.

The test has as its target Dual specificity tyrosine-phosphorylation-regulated kinase 1A (Homo sapiens, UniProt Q13627). In words: DYRK1A Inhibition Assay. The method, then: Assay Procedure1. Add 5 μL enzyme & substrate mixture to each well in Column 2-23 and A24-H24 wells of the 384-well assay plate;2. Add 5 μL 0% Phosphorylation control to A1-H1 and I24-P24 wells of the assay plate;3. Add 5 μL 100% Phosphorylation control to I1-P1 wells of the assay plate;4. Spin the assay plate (1000 rpm, 1 minute @23° C.);5. Incubate enzyme with compounds for 15 minutes at 23° C.;6. Add 5 μL ATP solution to each well of the assay plate;7. Spin the plate (1000 rpm, 1 minute @23° C.);8. Incubate the assay plate for 90 minutes at 23° C.;9. Add 10 μL Development reagent A to each well of the assay plate;10. Centrifuge the plate at 1000 rpm about 15 seconds and seal a film over assay plate. Incubate the assay plate for 30 minutes at 23° C.11. Read assay plates on Envision
Take `c1cc(-c2c[nH]c3cnccc23)ccn1` [US20250099442, Compound I.1]: the concentration for half-maximal inhibition (IC50) is 10 to 100 nM. For `CC(C)n1cc(-c2ccncc2)c2ccncc21` [US20250099442, Compound I.2], the IC50 was less than 10 nM. In the case of `CC(C)CN1CCC(C(=O)Nc2cc(-c3c[nH]c4cnccc34)ccn2)CC1` [US20250099442, Compound I.3] it was less than 10 nM; in that of `CC(C)CN1CCC(C(=O)Nc2cc(-c3cn(C(C)C)c4cnccc34)ccn2)CC1` [US20250099442, Compound I.4], less than 10 nM; in that of `CC(C)CN1CCC(CNc2cc(-c3c[nH]c4cnccc34)ccn2)CC1` [US20250099442, Compound I.5], 10 to 100 nM. In the case of `CC(C)CN1CCC(CNc2cc(-c3cn(C(C)C)c4cnccc34)ccn2)CC1` [US20250099442, Compound I.6] it was 10 to 100 nM. In the case of `CC(C)CN1CCC(C(=O)Nc2nccc(-c3cn(C(C)C)c4cnccc34)n2)CC1` [US20250099442, Compound I.8] it was 10 to 100 nM; in that of `CC(C)CN1CCC(CNc2nccc(-c3cn(C(C)C)c4cnccc34)n2)CC1` [US20250099442, Compound I.9], 100 to 1000 nM. Regarding `c1ccc(Oc2cc(-c3ccc4c(c3)CCO4)ccn2)cc1` [US20250099442, Compound I.10], the concentration for half-maximal inhibition (IC50) is more than 1000 nM. As for `c1cncc(-c2cc3c(-c4ccc5c(c4)CCO5)cncc3o2)c1` [US20250099442, Compound I.11], the IC50 is more than 1000 nM.

Compound `COc1cccc(-c2nc3cc(NS(C)(=O)=O)cnc3s2)c1` [US20250099442, Compound I.12] came in with a half-inhibitory concentration (IC50) of more than 1000 nM. In the case of `CS(=O)(=O)Nc1cnc2sc(-c3cccc(O)c3)nc2c1` [US20250099442, Compound I.13] it was more than 1000 nM; in that of `CN1CCC(C(=O)Nc2nc3ccc(-c4ccncc4)cc3s2)CC1` [US20250099442, Compound I.14], less than 10 nM; in that of `NC(=O)c1ccc(-c2cnc3[nH]cc(C4CCC4)c3c2)cc1` [US20250099442, Compound I.15], 100 to 1000 nM.

Compound `c1cc(-c2cnc3[nH]cc(C4CCC4)c3c2)ccn1` [US20250099442, Compound I.16] returned a 50% inhibitory concentration (IC50) of more than 1000 nM. Next, `CC(C)CN1CCC(C(=O)Nc2cc(-c3ccc4c(cnn4C)c3)ccn2)CC1` [US20250099442, Compound I.17]: 10 to 100 nM; `CC(C)CN1CCC(C(=O)Nc2cc(-c3ccc4nn(C)cc4c3)ccn2)CC1` [US20250099442, Compound I.18]: 10 to 100 nM. Next, `c1cc(-c2ccc3ncn(C4CCCNC4)c3c2)ccn1` (configuration not stated) [US20250099442, Compound I.19]: 10 to 100 nM; `CS(=O)(=O)N1CCC[C@@H](n2cnc3ccc(-c4ccncc4)cc32)C1` [US20250099442, Compound I.22]: 100 to 1000 nM; `CC(=O)N1CCCC(n2cnc3ccc(-c4ccncc4)cc32)C1` (configuration not stated) [US20250099442, Compound I.23]: 100 to 1000 nM. In the case of `Cn1nc2cnccc2c1-c1ccnc(NC(=O)C2CC2)c1` [US20250099442, Compound I.25] it was more than 1000 nM; in that of `COCCn1nc2cnccc2c1-c1ccnc(NC(=O)C2CC2)c1` [US20250099442, Compound I.26], more than 1000 nM; in that of `c1cc(Cc2cnc3ccc(-c4ccncc4)cn23)c2cn[nH]c2c1` [US20250099442, Compound I.28], 100 to 1000 nM. With `O=C(OCc1ccccc1)N1CCC(n2cnc3ccc(-c4ccncc4)cc32)CC1` [US20250099442, Compound I.30], the IC50 lay within 10 to 100 nM. Next, `c1cc(-c2ccc3ncn(C4CCNCC4)c3c2)ccn1` [US20250099442, Compound I.31]: 100 to 1000 nM; `CS(=O)(=O)N1CCC(n2cnc3ccc(-c4ccncc4)cc32)CC1` [US20250099442, Compound I.32]: 10 to 100 nM; `N#Cc1ccc(S(=O)(=O)N2CCCC(n3cnc4ccc(-c5ccncc5)cc43)C2)cc1` (configuration not stated) [US20250099442, Compound I.33]: 100 to 1000 nM.
